The source of these data is ChEMBL document CHEMBL1201862, “PubChem BioAssay data set” (2004).

Calls of active or inactive are those of the source.

One may read the EC50 as the concentration giving half of the maximal effect. A word on the IC50: it is the concentration that inhibits the measured activity by half. In general, CC50 refers to the concentration at which the toxic effect on the cells reaches its halfway point. For orientation: AC50 means the concentration giving half of the maximal activity seen.

Assay [1] deals with T1, Sphingosine 1-phosphate receptor 2 (Homo sapiens, UniProt O95136). The assay is described as follows: Dose Response Cell Based Assay for Agonists of the S1P2 Receptor of Purchased Analogues. [Related pubchem assays: 729, 843, 854, 736 ]. Type of assay: functional.
T1 sequence (O95136 whole entry): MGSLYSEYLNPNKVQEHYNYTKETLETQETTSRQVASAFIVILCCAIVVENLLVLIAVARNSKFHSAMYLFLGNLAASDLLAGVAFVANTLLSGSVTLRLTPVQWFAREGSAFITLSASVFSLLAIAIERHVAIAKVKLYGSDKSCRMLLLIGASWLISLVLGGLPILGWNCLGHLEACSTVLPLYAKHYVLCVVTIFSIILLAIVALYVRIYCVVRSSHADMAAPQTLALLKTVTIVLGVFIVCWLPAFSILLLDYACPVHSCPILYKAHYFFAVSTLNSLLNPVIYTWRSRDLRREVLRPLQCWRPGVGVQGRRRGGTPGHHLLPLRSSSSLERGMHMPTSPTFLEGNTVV
The target of a further assay is T2, Streptokinase A (Streptococcus pyogenes serotype M1, UniProt P10520).
T2 sequence (P10520 whole entry): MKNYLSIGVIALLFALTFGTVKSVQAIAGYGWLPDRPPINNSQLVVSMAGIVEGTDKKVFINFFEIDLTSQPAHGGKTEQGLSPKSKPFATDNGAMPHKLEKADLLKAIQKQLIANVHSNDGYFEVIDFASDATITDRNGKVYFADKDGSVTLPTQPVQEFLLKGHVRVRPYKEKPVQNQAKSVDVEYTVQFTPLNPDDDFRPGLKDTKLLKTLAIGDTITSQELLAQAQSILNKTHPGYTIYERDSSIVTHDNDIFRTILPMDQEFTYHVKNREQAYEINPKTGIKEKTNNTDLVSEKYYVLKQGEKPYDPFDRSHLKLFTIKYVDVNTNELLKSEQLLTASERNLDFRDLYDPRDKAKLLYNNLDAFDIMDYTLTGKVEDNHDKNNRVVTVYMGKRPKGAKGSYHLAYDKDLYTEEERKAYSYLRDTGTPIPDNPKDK
Kind of assay: Absorbance Microorganism-Based Dose Response Follow up to Identify Inhibitors of Streptokinase Expression. [Related pubchem assays: 1677 (Project Summary), 1915, 1914, 1902 (Retest at Dose), 1900 (Counter Screen), 1662 (Primary HTS)]. The class given is functional, Streptococcus pyogenes M1 GAS.

A further assay deals with Streptococcus. The assay is described as follows: GAS bacterial viability reduction – luminescence, BacTiter-Glo, strain UMAA2166, counter-screen for streptokinase expression inhibitor project, dose response (AID 2477). Type of assay: functional, organism-based. (In general: A counterscreen serves to expose hits that act by an unwanted route or on another target.)
The target of assay [2] is T1, Sphingosine 1-phosphate receptor 2. The assay is described as follows: Dose Response Cell Based Assay for Antagonists of the S1P2 Receptor. [Related pubchem assays: 856, 736 ]. Type of assay: functional.
Assay [3] is described as follows: Luminescence Cell-Based Dose Confirmation HTS to Identify Activators of 5'UTR Stem-Loop Driven Alpha-Synuclein mRNA Translation in H4 Neuroglioblastoma Cells. [Related pubchem assays: 1829 (Project Summary), 1814 (Primary HTS)]. Type of assay: functional.
Assay [4] is described as follows: Luminescence Cell-Based Dose Response HTS to Identify Activators of Luciferase Translation or Activity in H4 […] Cells. [Related pubchem assays: 1829 (Project Summary), 1814 (Primary HTS)]. The class given is functional.
The test system of assay [5] is BJ. Kind of assay: BJ-TERT fibroblast viability loss – cell-based, RAS-independent, luminescence, dose response (AID 1933). The class given is functional. The conditions noted are these: Homo sapiens.
For the next assay, the system named is H4. The assay is described as follows: Luminescence Cell-Based Dose Response HTS to Identify Activators of 5'UTR Stem-Loop Driven Prion Protein mRNA Translation in H4 Neuroglioblastoma Cells. [Related pubchem assays: 1829 (Project Summary), 1814 (Primary HTS)]. Type of assay: functional. The conditions noted are these: Homo sapiens.
Assay [6] deals with BJ. The assay is described as follows: cells. Type of assay: functional, cell-based. The conditions noted are these: Homo sapiens.
The target of assay [7] is T3, Mannose-6-phosphate isomerase (Homo sapiens, UniProt P34949).
T3 sequence (P34949 whole entry): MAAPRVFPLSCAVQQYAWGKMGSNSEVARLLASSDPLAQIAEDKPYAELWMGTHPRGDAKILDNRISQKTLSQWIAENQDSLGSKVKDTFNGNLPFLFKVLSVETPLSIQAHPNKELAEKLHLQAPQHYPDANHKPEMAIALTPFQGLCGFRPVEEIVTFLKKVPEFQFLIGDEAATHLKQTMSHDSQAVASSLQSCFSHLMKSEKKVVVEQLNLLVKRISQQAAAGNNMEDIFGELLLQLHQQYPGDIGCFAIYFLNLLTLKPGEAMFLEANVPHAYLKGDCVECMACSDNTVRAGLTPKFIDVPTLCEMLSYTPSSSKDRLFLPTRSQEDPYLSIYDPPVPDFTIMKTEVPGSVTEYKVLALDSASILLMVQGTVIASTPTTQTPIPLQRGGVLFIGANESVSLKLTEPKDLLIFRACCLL
The assay is described as follows: MPI enzyme activity inhibition – biochemical, fluorescence intensity, coupled assay, primary screen (AID 1209).

Assay [8] concerns BJ. The assay is described as follows: BJ-TERT-LT-ST fibroblast viability loss – cell-based, RAS-independent, luminescence, dose response (AID 1935).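 Also: BJ fibroblasts immortalized with TERT plus LT and ST oncogenes.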 Type of assay: functional. The conditions noted are these: Homo sapiens.
Assay [9] can be described thus: DRD fibroblast viability loss – cell-based, non-viral oncogenic, luminescence, dose response (AID 1934). The class given is functional. To be noted: Homo sapiens.
Assay [10] in a line: THP-1 cell cytotoxicity, dose response, cytotoxicity control for non-replicating M. tuberculosis project (AID 489025). The class given is functional.
A short description of assay [11]: Vero E6 cell cytotoxicity, dose response, cytotoxicity control for non-replicating M. tuberculosis project, secondary assay (AID 492998). The class given is functional, VeroE6. To be noted: Vero C1008.
The target of the next assay is Nonstructural protein 1 (Influenza A virus, UniProt Q194T2). Type of assay: functional, Influenza A virus (A/California/07/2009(H1N1)).
Nonstructural protein 1, sequence (Q194T2 whole entry): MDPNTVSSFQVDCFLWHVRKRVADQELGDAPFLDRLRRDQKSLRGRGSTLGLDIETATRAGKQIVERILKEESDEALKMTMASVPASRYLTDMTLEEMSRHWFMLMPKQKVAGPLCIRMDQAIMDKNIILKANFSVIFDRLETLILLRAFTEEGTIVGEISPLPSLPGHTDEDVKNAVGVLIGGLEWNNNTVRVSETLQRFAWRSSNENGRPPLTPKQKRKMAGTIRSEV
A short description of another assay: cells. The class given is functional.
Assay [12] addresses T4, Replicative DNA helicase DnaB (Mycobacterium tuberculosis, UniProt P9WMR3).
T4 sequence (P9WMR3 whole entry): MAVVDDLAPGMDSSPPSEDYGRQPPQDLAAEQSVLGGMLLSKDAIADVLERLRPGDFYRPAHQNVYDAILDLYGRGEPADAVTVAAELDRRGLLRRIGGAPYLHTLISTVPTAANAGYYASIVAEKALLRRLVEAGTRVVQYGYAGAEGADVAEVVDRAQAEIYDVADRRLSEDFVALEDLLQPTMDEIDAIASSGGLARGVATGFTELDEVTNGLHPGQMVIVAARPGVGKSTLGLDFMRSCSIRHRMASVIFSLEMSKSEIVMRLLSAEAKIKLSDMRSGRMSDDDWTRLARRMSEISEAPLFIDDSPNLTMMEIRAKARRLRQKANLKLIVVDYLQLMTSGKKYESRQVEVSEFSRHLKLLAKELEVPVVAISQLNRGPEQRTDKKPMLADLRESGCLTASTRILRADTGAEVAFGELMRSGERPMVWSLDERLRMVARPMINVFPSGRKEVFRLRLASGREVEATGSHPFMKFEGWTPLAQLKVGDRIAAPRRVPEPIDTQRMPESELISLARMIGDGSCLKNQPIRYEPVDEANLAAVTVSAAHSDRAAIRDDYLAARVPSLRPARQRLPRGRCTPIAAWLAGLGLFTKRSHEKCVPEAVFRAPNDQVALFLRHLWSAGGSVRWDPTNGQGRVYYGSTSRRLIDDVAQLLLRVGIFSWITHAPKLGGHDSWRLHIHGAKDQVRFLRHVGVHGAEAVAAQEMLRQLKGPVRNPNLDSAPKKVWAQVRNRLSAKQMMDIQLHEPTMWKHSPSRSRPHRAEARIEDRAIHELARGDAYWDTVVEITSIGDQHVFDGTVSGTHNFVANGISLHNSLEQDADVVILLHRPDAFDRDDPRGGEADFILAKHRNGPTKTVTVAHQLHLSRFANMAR
Kind of assay: DnaB intein splicing inhibitors, dose response, biochemical, cell-free fluorescence (AID 449749). The class given is functional.

Assay [13] deals with BJ. Kind of assay: growth inhibition of engineered Ras-driven BJ cells – cell-based, alamar blue fluorescence, cherrypicked samples, dose response (AID 2631).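 Also: confirmatory dose-response assay in RAS-dependent BJ fibroblasts engineered with TERT, LT and ST, with cytotoxicity read by fluorescence.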 The conditions noted are these: Homo sapiens. The class given is functional. A general note: The colour change of resazurin is a common sign of viable cells or microbes.
For a further assay, the target named is T5, Protein RecA (Mycobacterium tuberculosis, UniProt P9WHJ3).
T5 sequence (P9WHJ3 whole entry): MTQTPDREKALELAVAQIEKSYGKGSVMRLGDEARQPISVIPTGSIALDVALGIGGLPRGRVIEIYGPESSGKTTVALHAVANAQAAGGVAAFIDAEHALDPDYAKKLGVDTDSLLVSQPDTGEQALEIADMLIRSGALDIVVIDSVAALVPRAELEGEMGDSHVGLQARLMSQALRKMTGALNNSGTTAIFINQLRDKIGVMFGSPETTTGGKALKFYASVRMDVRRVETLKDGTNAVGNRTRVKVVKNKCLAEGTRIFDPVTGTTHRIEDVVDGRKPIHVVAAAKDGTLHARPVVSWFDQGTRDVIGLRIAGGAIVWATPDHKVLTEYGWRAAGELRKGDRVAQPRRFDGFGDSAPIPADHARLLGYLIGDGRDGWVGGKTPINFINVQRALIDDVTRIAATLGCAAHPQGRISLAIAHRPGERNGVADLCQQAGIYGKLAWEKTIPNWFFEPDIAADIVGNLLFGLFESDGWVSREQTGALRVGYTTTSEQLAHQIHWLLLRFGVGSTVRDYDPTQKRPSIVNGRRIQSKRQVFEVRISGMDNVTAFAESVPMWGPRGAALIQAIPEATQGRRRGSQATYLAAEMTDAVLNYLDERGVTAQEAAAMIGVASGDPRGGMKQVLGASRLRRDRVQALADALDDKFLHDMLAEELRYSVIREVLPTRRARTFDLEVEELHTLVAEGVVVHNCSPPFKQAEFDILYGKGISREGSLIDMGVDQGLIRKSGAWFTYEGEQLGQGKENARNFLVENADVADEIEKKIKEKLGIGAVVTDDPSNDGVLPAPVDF
The assay is described as follows: Fluorescence Cell-Free Homogeneous Dose Retest to Identify Inhibitors of RecA-Intein Splicing Activity. [Related pubchem assays (depositor defined):AID2097, AID2223, AID489010, AID492950]. The class given is functional.

The subject of the next assay is INS1. The assay is described as follows: INS-1E survival protection against cytokine death – cell-based, luminescence, retest, dose response (AID 449756).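 Also: cell death triggered by IL-1 beta plus TNF-alpha plus IFN-gamma mixture; protective hits raise ATP signal compared with cytokine alone wells.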 Type of assay: functional. The conditions noted are these: Rattus norvegicus.

On to `Cc1cc(C(=O)CN(C)CC(=O)N(C)C)c(C)n1Cc1ccccc1`, for which, in [1], the EC50 is > 30 µM (not active).

Take `COc1cccc(-c2nc(OC(C)C)c3ccccc3n2)c1`: the EC50 was 8.2 µM (active) at Streptokinase A and 68.7 µM (active) in the assay on Streptococcus.

For the compound `CC1=C(C)/C(=N\OS(=O)(=O)c2ccccc2)C=CC1=O`, the IC50 was 4.33 µM (active) in assay [2], 6.61 µM (active) in assay [7], > 100 µM (active) at Nonstructural protein 1 and 11.4 µM (active) in the assay “cells”. The EC50 is > 120 µM (not active) in [3]; > 120 µM (not active) in assay [4]; 2.78 µM (inconclusive) in the assay with BJ [5]; > 120 µM (not active) with H4; 2.92 µM (active) in the assay on BJ [6]; 4.32 µM (inconclusive) in the assay with BJ [8]. The values for the EC50 (in assay [9]; in the assay on BJ [13]; on Protein RecA) were 4.57 µM (active), 0.557 µM (inconclusive) and 7.72 µM (active), respectively. Moreover, the results for the half-maximal cytotoxic concentration (CC50) in assay [10] and in [11] were 12.1 µM (active) and > 20 µM (active), respectively. The AC50 in assay [12] is 87.4 µM (active); in the assay on INS1, 1.92 µM (active).
